According to patent publication US20160318987A1 (MEDIMMUNE LIMITED, priority 2013, published 2016):
Where a SMILES comes first, the peptide text is derived from it. [ ]: non-standard residue; d: D form. αMeF = C[C@](N)(Cc1ccccc1)C(=O)O; Aib = CC(C)(N)C(=O)O

Columns and labels:
Type in all cases: cell-based
Details in all cases: n = 2
[1] = molecular target: T1, hGluc-R (Homo sapiens, UniProt P47871); assay: cAMP functional assay, cells expressing human glucagon receptor (primary assay)
T1 construct: expressed in transfected cells
Method: The biological activities/receptor potencies of the synthetic GLP-1 peptides described herein are suitably tested for biological activity, e.g., stimulation of one or more cellular receptor responses. Stable cell lines expressing human, mouse, rat, or dog GLP-1 receptor (GLP-1R), glucagon receptor (GCGR) or glucose-dependent insulinotropic peptide (gastric inhibitory polypeptide) receptor (GIPR) are generated in HEK293 cells or CHO cells by standard methods.
cAMP assays were performed using “assay buffer”: Assay Buffer: 0.1% BSA (Sigma #A3059) in HBSS (Sigma #H8264) with 25 mM HEPES, pH 7.4 and containing 0.5 mM IBMX (Sigma #17018).
Low protein binding 384-well plates (Greiner #781280) are used to perform eleven 1 in 5 serial dilutions of test samples which are made in assay buffer. All sample dilutions are made in duplicate.
A frozen cryo-vial of cells expressing the receptor of interest is thawed rapidly in a water-bath, transferred to pre-warmed assay buffer and spun at 240× g for 5 minutes. Cells are re-suspended in assay buffer at a batch-dependent optimized concentration (e.g. hGCGR cells at 2×10^5 cells/ml, hGLP-1R and hGIPR cells at 1×10^5 cells /ml).
From the dilution plate, a 5 μL replica is stamped onto a black shallow-well u-bottom 384-well plate (Corning #3676). To this, 5 μL cell suspension is added and the plates incubated at room temperature for 30 minutes.
cAMP levels are measured using a commercially available cAMP dynamic 2 HTRF kit (Cisbio, Cat #62AM4PEJ), following the two step protocol as per manufacturer's recommendations. In brief; anti-cAMP cryptate (donor fluorophore) and cAMP-d2 (acceptor fluorophore) are made up separately by diluting each 1/20 in conjugate & lysis buffer provided in the kit. 5 μL anti-cAMP cryptate is added to all wells of the assay plate, and 5 μL cAMP-d2 is added to all wells except non-specific binding (NSB) wells, to which conjugate and lysis buffer are added. Plates are incubated at room temperature for one hour and then read on an Envision (Perkin Elmer) using excitation wavelength of 320 nm and emission wavelengths of 620 nm & 665 nm. EC50 values of the synthetic peptides determined in cAMP assays are then determined.

[2] = molecular target: T2, hGLP-1R (Homo sapiens, UniProt P43220); assay: cAMP functional assay, cells expressing human GLP-1 receptor (primary assay)
T2 construct: expressed in transfected cells

[3] = molecular target: T3, hGIP-R (Homo sapiens, UniProt P48546); assay: cAMP functional assay, cells expressing human GIP receptor (primary assay)
T3 construct: expressed in transfected cells
T3 sequence (P48546 22-466): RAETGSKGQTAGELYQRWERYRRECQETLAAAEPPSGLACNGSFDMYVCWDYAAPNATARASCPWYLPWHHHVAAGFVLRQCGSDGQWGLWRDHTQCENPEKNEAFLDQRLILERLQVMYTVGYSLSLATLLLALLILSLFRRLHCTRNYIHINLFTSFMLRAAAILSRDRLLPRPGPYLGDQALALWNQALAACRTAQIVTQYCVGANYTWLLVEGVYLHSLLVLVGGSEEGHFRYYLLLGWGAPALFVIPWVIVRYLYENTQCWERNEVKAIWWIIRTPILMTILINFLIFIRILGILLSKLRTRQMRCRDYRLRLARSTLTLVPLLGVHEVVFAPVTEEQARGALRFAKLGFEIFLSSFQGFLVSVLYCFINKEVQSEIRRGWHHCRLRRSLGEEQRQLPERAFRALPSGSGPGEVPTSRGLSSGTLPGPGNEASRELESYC

T2 sequence (P43220 24-463): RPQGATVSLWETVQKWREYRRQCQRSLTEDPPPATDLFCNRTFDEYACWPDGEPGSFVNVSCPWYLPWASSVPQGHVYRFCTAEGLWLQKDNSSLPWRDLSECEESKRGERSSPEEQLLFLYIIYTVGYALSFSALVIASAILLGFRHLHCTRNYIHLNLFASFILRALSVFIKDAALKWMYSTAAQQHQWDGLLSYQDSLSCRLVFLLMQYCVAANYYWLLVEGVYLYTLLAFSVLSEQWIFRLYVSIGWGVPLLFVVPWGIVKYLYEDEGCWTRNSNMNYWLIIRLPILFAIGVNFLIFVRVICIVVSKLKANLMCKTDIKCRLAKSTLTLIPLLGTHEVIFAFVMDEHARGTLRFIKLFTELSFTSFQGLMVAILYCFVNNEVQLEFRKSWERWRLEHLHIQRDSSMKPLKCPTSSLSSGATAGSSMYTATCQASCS
T1 sequence (P47871 26-477): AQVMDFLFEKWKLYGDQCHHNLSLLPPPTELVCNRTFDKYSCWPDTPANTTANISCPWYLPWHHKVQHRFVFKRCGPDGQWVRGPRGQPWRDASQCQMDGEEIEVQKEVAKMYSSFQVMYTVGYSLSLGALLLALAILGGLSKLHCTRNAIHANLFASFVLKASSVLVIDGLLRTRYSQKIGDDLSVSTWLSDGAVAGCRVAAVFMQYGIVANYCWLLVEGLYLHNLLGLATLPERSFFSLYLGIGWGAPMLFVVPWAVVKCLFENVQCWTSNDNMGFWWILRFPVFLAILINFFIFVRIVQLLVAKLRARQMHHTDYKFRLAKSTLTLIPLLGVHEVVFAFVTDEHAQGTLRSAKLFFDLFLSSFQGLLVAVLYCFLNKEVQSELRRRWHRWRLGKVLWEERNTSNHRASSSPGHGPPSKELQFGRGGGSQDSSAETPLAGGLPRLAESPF

CCCCCCCCCCCCCCCC(=O)NCCCC[C@H](NC(=O)[C@H](CCCNC(=N)N)NC(=O)CNC(=O)[C@H](CCCCN)NC(=O)[C@@H](NC(=O)[C@H](CC(C)C)NC(=O)[C@H](Cc1c[nH]c2ccccc12)NC(=O)[C@H](C)NC(=O)[C@@H](NC(=O)[C@H](Cc1ccccc1)NC(=O)[C@H](CCC(=O)O)NC(=O)[C@H](CCCCN)NC(=O)[C@H](C)NC(=O)[C@H](C)NC(=O)[C@H](CCC(N)=O)NC(=O)CNC(=O)[C@H](CCC(=O)O)NC(=O)[C@H](CC(C)C)NC(=O)[C@H](Cc1ccc(O)cc1)NC(=O)[C@H](CO)NC(=O)[C@H](CO)NC(=O)[C@@H](NC(=O)[C@H](CC(=O)O)NC(=O)[C@H](CO)NC(=O)[C@@H](NC(=O)[C@H](Cc1ccccc1)NC(=O)[C@@H](NC(=O)CNC(=O)[C@H](CCC(=O)O)NC(=O)C(C)(C)NC(=O)[C@@H](N)Cc1c[nH]cn1)[C@@H](C)O)[C@@H](C)O)C(C)C)[C@@H](C)CC)C(C)C)C(N)=O [SEQ ID NO: 5, H-(Aib)^2-EGT^5 FTSDV^10 SSYLE^15 GQAAK^20 EFIAW^25 LVKGR^30-K(Ε-Palm), reference compound]
EC50 [1]: 90.6 nM | EC50 [2]: 0.0254 nM | EC50 [3]: 90.6 nM

CC[C@H](C)[C@H](NC(=O)[C@H](Cc1ccccc1)NC(=O)[C@H](CCC(=O)O)NC(=O)[C@H](CCCCN)NC(=O)[C@H](C)NC(=O)[C@H](C)NC(=O)[C@H](CCC(N)=O)NC(=O)CNC(=O)[C@H](CCC(=O)O)NC(=O)[C@H](CC(C)C)NC(=O)[C@H](Cc1ccc(O)cc1)NC(=O)[C@H](CO)NC(=O)[C@H](CO)NC(=O)[C@@H](NC(=O)[C@H](CC(=O)O)NC(=O)[C@H](CO)NC(=O)[C@@H](NC(=O)[C@](C)(Cc1ccccc1)NC(=O)[C@@H](NC(=O)CNC(=O)[C@H](CCC(=O)O)NC(=O)C(C)(C)NC(=O)[C@@H](N)Cc1c[nH]cn1)[C@@H](C)O)[C@@H](C)O)C(C)C)C(=O)N[C@@H](C)C(=O)N[C@@H](Cc1c[nH]c2ccccc12)C(=O)N[C@@H](CC(C)C)C(=O)N[C@H](C(=O)N[C@@H](CCCCN)C(=O)NCC(=O)N[C@@H](CCCNC(=N)N)C(N)=O)C(C)C [SEQ ID NO: 6, H-(Aib)^2-EGT^5-(α-MeF)^6-TSDV^10 SSYLE^15 GQAAK^20 EFIAW^25 LVKGR^30]
EC50 [1]: 153 nM | EC50 [2]: 0.026 nM | EC50 [3]: 74.9 nM

CC[C@H](C)[C@H](NC(=O)[C@H](Cc1ccccc1)NC(=O)[C@H](CCC(=O)O)NC(=O)[C@H](CCCCN)NC(=O)[C@H](C)NC(=O)[C@H](C)NC(=O)[C@H](CCC(N)=O)NC(=O)CNC(=O)[C@H](CCC(=O)O)NC(=O)[C@H](CC(C)C)NC(=O)[C@H](Cc1ccc(O)cc1)NC(=O)[C@H](CO)NC(=O)[C@H](CO)NC(=O)[C@@H](NC(=O)[C@H](CC(=O)O)NC(=O)[C@H](CO)NC(=O)[C@@H](NC(=O)C(C)(C)NC(=O)[C@@H](NC(=O)CNC(=O)[C@H](CCC(=O)O)NC(=O)C(C)(C)NC(=O)[C@@H](N)Cc1c[nH]cn1)[C@@H](C)O)[C@@H](C)O)C(C)C)C(=O)N[C@@H](C)C(=O)N[C@@H](Cc1c[nH]c2ccccc12)C(=O)N[C@@H](CC(C)C)C(=O)N[C@H](C(=O)N[C@@H](CCCCN)C(=O)NCC(=O)N[C@@H](CCCNC(=N)N)C(N)=O)C(C)C [SEQ ID NO: 7, H-(Aib)^2-EGT^5-(Aib)^6-TSDV^10 SSYLE^15 GQAAK^20 EFIAW^25 LVKGR^30]
EC50 [1]: 151 nM | EC50 [2]: 0.0728 nM | EC50 [3]: 151 nM

CC[C@H](C)[C@H](NC(=O)[C@H](Cc1ccccc1)NC(=O)[C@H](CCC(=O)O)NC(=O)[C@H](CCCCN)NC(=O)[C@H](C)NC(=O)[C@H](C)NC(=O)[C@H](CCC(N)=O)NC(=O)CNC(=O)[C@H](CCC(=O)O)NC(=O)[C@H](CC(C)C)NC(=O)[C@](C)(Cc1ccc(O)cc1)NC(=O)[C@H](CO)NC(=O)[C@H](CO)NC(=O)[C@@H](NC(=O)[C@H](CC(=O)O)NC(=O)[C@H](CO)NC(=O)[C@@H](NC(=O)[C@H](Cc1ccccc1)NC(=O)[C@@H](NC(=O)CNC(=O)[C@H](CCC(=O)O)NC(=O)C(C)(C)NC(=O)[C@@H](N)Cc1c[nH]cn1)[C@@H](C)O)[C@@H](C)O)C(C)C)C(=O)N[C@@H](C)C(=O)N[C@@H](Cc1c[nH]c2ccccc12)C(=O)N[C@@H](CC(C)C)C(=O)N[C@H](C(=O)N[C@@H](CCCCN)C(=O)NCC(=O)N[C@@H](CCCNC(=N)N)C(N)=O)C(C)C [SEQ ID NO: 8, H-(Aib)^2-EGT^5 FTSDV^10 SS-(α-MeY)^13-LE^15 GQAAK^20 EFIAW^25 LVKGR^30]
EC50 [1]: 156 nM | EC50 [2]: 0.0229 nM | EC50 [3]: 156 nM

CC[C@H](C)[C@H](NC(=O)[C@H](Cc1ccccc1)NC(=O)[C@H](CCC(=O)O)NC(=O)[C@H](CCCCN)NC(=O)[C@H](C)NC(=O)[C@H](C)NC(=O)[C@H](CCC(N)=O)NC(=O)CNC(=O)[C@H](CCC(=O)O)NC(=O)[C@H](CC(C)C)NC(=O)[C@](C)(Cc1ccccc1)NC(=O)[C@H](CO)NC(=O)[C@H](CO)NC(=O)[C@@H](NC(=O)[C@H](CC(=O)O)NC(=O)[C@H](CO)NC(=O)[C@@H](NC(=O)[C@H](Cc1ccccc1)NC(=O)[C@@H](NC(=O)CNC(=O)[C@H](CCC(=O)O)NC(=O)C(C)(C)NC(=O)[C@@H](N)Cc1c[nH]cn1)[C@@H](C)O)[C@@H](C)O)C(C)C)C(=O)N[C@@H](C)C(=O)N[C@@H](Cc1c[nH]c2ccccc12)C(=O)N[C@@H](CC(C)C)C(=O)N[C@H](C(=O)N[C@@H](CCCCN)C(=O)NCC(=O)N[C@@H](CCCNC(=N)N)C(N)=O)C(C)C [SEQ ID NO: 9, H-(Aib)^2-EGT^5 FTSDV^10 SS-(α-MeF)^13-LE^15 GQAAK^20 EFIAW^25 LVKGR^30] (H-H[Aib]EGTFTSDVSS[αMeF]LEGQAAKEFIAWLVKGR-NH2)
EC50 [1]: 141 nM | EC50 [2]: 0.0338 nM | EC50 [3]: 141 nM

CC[C@H](C)[C@H](NC(=O)[C@](C)(Cc1ccccc1)NC(=O)[C@H](CCC(=O)O)NC(=O)[C@H](CCCCN)NC(=O)[C@H](C)NC(=O)[C@H](C)NC(=O)[C@H](CCC(N)=O)NC(=O)CNC(=O)[C@H](CCC(=O)O)NC(=O)[C@H](CC(C)C)NC(=O)[C@](C)(Cc1ccccc1)NC(=O)[C@H](CO)NC(=O)[C@H](CO)NC(=O)[C@@H](NC(=O)[C@H](CC(=O)O)NC(=O)[C@H](CO)NC(=O)[C@@H](NC(=O)[C@](C)(Cc1ccccc1)NC(=O)[C@H](CO)NC(=O)CNC(=O)[C@H](CCC(=O)O)NC(=O)C(C)(C)NC(=O)[C@@H](N)Cc1c[nH]cn1)[C@@H](C)O)C(C)C)C(=O)N[C@@H](C)C(=O)N[C@@](C)(Cc1ccccc1)C(=O)N[C@@H](CC(C)C)C(=O)N[C@H](C(=O)N[C@@H](CCCCN)C(=O)NC(C)(C)C(=O)N[C@@H](CCCNC(=N)N)C(N)=O)C(C)C [SEQ ID NO: 42, H-(Aib)^2-EG-(S)^5-(α-MeF)^6-TSDV^10 SS-(α-MeF)^13-LE^15 GQAAK^20 E-(α-MeF)^22-IA-(α-MeF)^25 LVK-(Aib)^29-R^30] (H-H[Aib]EGS[αMeF]TSDVSS[αMeF]LEGQAAKE[αMeF]IA[αMeF]LVK[Aib]R-NH2)
EC50 [2]: 0.0234 nM | EC50 [3]: 102 nM

CC[C@H](C)[C@H](NC(=O)[C@](C)(Cc1ccccc1)NC(=O)[C@H](CCC(=O)O)NC(=O)[C@H](CCCCN)NC(=O)[C@H](C)NC(=O)[C@H](C)NC(=O)[C@H](CCC(N)=O)NC(=O)CNC(=O)[C@H](CCC(=O)O)NC(=O)[C@H](CC(C)C)NC(=O)[C@](C)(Cc1ccccc1)NC(=O)[C@H](CO)NC(=O)[C@H](CO)NC(=O)[C@@H](NC(=O)[C@H](CC(=O)O)NC(=O)[C@H](CO)NC(=O)[C@@H](NC(=O)[C@](C)(Cc1ccccc1)NC(=O)[C@H](CO)NC(=O)CNC(=O)[C@H](CCC(=O)O)NC(=O)C(C)(C)NC(=O)[C@@H](N)Cc1c[nH]cn1)[C@@H](C)O)C(C)C)C(=O)N[C@@H](C)C(=O)N[C@@](C)(Cc1ccccc1)C(=O)N[C@@H](CC(C)C)C(=O)NC(C)(C)C(=O)N[C@@H](CCCCN)C(=O)NC(C)(C)C(=O)N[C@@H](CCCNC(=N)N)C(N)=O [SEQ ID NO: 43, H-(Aib)^2-EG-(S)^5-(α-MeF)^6-TSDV^10 SS-(α-MeF)^13-LE^15 GQAAK^20 E-(α-MeF)^22-IA-(α-MeF)^25 L-(Aib)^27-K-(Aib)^29-R^30] (H-H[Aib]EGS[αMeF]TSDVSS[αMeF]LEGQAAKE[αMeF]IA[αMeF]L[Aib]K[Aib]R-NH2)
EC50 [2]: 0.0707 nM | EC50 [3]: 102 nM
